# According to patent publication US9198915B2, “Methods involving aldose reductase inhibitors” (The Board of Regents of The University of Texas System, priority 2007, dated 2015):
# System: IL-6, IL-8 and Cox-2 mRNA
# Assay: TNF-α- and LPS-induced IL-6, IL-8 and Cox-2 mRNA in SAEC (RT-PCR)
# Format: cell-based, human
# Conditions: TNF-α 2 nM or LPS 1 μg/ml, 6 h
# Procedure: The SAEC were grown in 6-well plates at a density of approximately 3.0×10^5 cells/well. After approximately 80% confluence cells were serum-starved in the presence or absence of sorbinil (20 μM) or carrier for 24 h and then stimulated with either TNF-α (2 nM) or LPS (1 μg/mL). Total RNA from SAEC was isolated by using RNeasy kit (Qiagen) as per supplier's instructions. Aliquots of RNA (0.5-1.0 μg) isolated from each sample were reverse transcribed with Omniscript and Sensiscript reverse transcriptase one-step RT-PCR system with HotStar Taq DNApolymerase (Qiagen) at 55° C. for 30 min followed by PCR amplification. The oligonucleotide primer sequences were as follows: 5′-[…]-3′ (SEQ ID NO:3) (sense) and 5′-[…]-3′ (SEQ ID NO:4) (antisense) for IL-6; 5′-[…]-3′ (SEQ ID NO:5) (sense) and 5′-TCT […]-3′ (SEQ ID NO:6) (antisense) for IL-8; 5′-TGAAACCCACTCCA AACACAG-3′ (SEQ ID NO:7) (sense) and 5′-[…]-3′ (SEQ ID NO:8) (antisense) for Cox-2; and 5′-[…]-3′ (SEQ ID NO:9) (sense) and 5′-CGTC […]-3′ (SEQ ID NO:10) (antisense) for β-actin. PCR was carried out in a PCR Sprint thermal cycler (Thermo electron corporation, Milford, Mass.) under the following conditions: initial denaturation at 95° C. for 15 min followed by 35 cycles of 94° C. 1 min, 62° C. 1 min, 72° C. 1 min, and then 72° C. 10 min for final extension. […]
compound,measurement,value
O=C(O)Cc1nn(Cc2nc3cc(C(F)(F)F)ccc3s2)c(=O)c2ccccc12 [zopolrestat],prevention of TNF-α- and LPS-induced increase of Cox-2 mRNA levels,> 60%
